pIC50: −log10 of the molar value. Structures can show the parent of a compound that is named as a salt.

For series [1], the target named is 5-HT1D binding site. Kind of series: 5-HT1D binding site affinity (tritiated serotonin; method of Heuring and Peroutka with minor modifications). Particulars: in vitro. The procedure:
Determination of 5-HT1D binding properties was accomplished employing methodology such as that described by Heuring and Peroutka, J. Neurosci., 7(3), 1987, 894-903; with only minor modifications. In vitro IC50 (nM) test values were determined for the compounds of this invention employing tritiated serotonin.

Broadly, the melting point is the temperature, or range, at which the solid turns liquid. `COc1cncnc1N1CCN(CCCc2c[nH]c3ccc(C(C)=O)cc23)CC1.Cl`: the melting point is 215 to 217 °C (dec.).
Turning to `CCCCNC(=O)c1ccc2[nH]cc(CCCN3CCN(c4ncncc4OC)CC3)c2c1.Cl`, the melting point lay in the range of 180 to 185 °C.
As to `COc1cncnc1N1CCN(CCCc2c[nH]c3ccc(N4CCCC4=O)cc23)CC1.O=C(O)C(=O)O`, the melting point is 100 to 101 °C.
`CCS(=O)(=O)Nc1ccc2[nH]cc(CCCN3CCN(c4ncncc4OC)C(C)C3)c2c1` (centres unmarked) (as salt: HCl) (hydrate or solvate) [Example 70, 1-[3-(5-Ethanesulfonylamino-1H-indol-3-yl)propyl]-4-(5-methoxy-4-pyrimidinyl)-3-methylpiperazine] returned a melting point of 212 to 214 °C.
In the case of `COc1cncnc1N1CCN(CCCc2c[nH]c3ccc(OCc4ccccc4)cc23)CC1` (as salt: HCl) (hydrate or solvate) [Example 72], the melting point is 180 °C (dec.).
In the case of `COc1cncnc1N1CCN(CCCc2c[nH]c3ccccc23)CC1C` (centres unmarked) (as salt: HCl) [Example 62], the melting point is 185 °C (dec.).
`COc1cncnc1N1CCN(CCCc2c[nH]c3ccc(NS(C)(=O)=O)cc23)CC1` (as salt: HCl) [Example 63]: the melting point lay within 150 to 152 °C.
In the case of `COc1cncnc1N1CCN(CCCc2c[nH]c3ccc(N(C)S(C)(=O)=O)cc23)CC1` (as salt: HCl) [Example 65], the melting point lay in the range of 227 to 230 °C.
In the case of `CCS(=O)(=O)Nc1ccc2[nH]cc(CCCN3CCN(c4ncncc4OC)CC3)c2c1` (as salt: HCl) [Example 67], the melting point fell in the range of 140 to 145 °C.
In the case of `CCS(=O)(=O)N(C)c1ccc2[nH]cc(CCCN3CCN(c4ncncc4OC)CC3)c2c1` (as salt: HCl) [Example 68], the melting point was 223 to 225 °C.
Still for that read-out and setting: the figure for `CCS(=O)(=O)N(C)c1ccc2[nH]cc(CCCN3CCN(c4ncncc4OC)C(C)C3)c2c1` (centres unmarked) (as salt: HCl) [Example 69] is 205 to 207 °C; for `COc1ccc2[nH]cc(CCCN3CCN(c4ncncc4OC)CC3)c2c1` (as salt: HCl) [Example 73] it is 130 to 150 °C (dec.).
`COc1cncnc1N1CCN(CCCc2c[nH]c3c(F)cc(F)cc23)CC1` (as salt: HCl) [Example 76]: the melting point is > 250 °C (dec.).
As to `COc1cncnc1N1CCN(CCCc2c[nH]c3ccc(CS(=O)(=O)N(C)C)cc23)CC1` (as salt: hydrochloride) (hydrate or solvate) [Example 30, 1-[3-[5-[[(Dimethylamino)sulfonyl]methyl]-1H-indol-3-yl]propyl]-4-(5-methoxy-4-pyrimidinyl)piperazine], the melting point is 210 °C (dec.).
With `COc1cncnc1N1CCN(CCCc2c[nH]c3ccc(CNS(C)(=O)=O)cc23)CC1` (as salt: hydrochloride) (hydrate or solvate) [Example 31, 4-(5-Methoxy-4-pyrimidinyl)-1-[[5-[[(methylsulfonyl)amino]methyl]-1H-indol-3-yl]propyl]piperazine], the melting point was 204 to 206 °C.
In the case of `COc1cncnc1N1CCN(CCCc2c[nH]c3ccc(OCC#N)cc23)CC1` (as salt: hydrochloride) [Example 45, 3-[3-[4-(5-Methoxy-4-pyrimidinyl)-1-piperazinyl]propyl]-5-(cyanomethyl)oxyindole], the melting point was 198 to 200 °C (dec.).
On to `COc1cncnc1N1CCN(CCC(C)c2c[nH]c3ccccc23)CC1` (centres unmarked) (as salt: hydrochloride) [Example 53, 1-[3-(1H-indol-3-yl)butyl]-4-(5-methoxy-4-pyrimidinyl)piperazine], for which the melting point is 169 to 172 °C (dec.).
`COc1cncnc1N1CCN(CCCc2c[nH]c3ccc(O)cc23)CC1` (as salt: hydrochloride) [Example 55, 1-[3-(5-Hydroxy-1H-indol-3-yl)propyl]-4-(5-methoxy-4-pyrimidinyl)piperazine] gave a melting point of 215 °C.
The compound `COc1cncnc1N1CCN(CCCc2c[nH]c3ccc(F)cc23)CC1` (as salt: hydrochloride) [Example 60, 3-(3-(4-(5-methoxy-4-pyrimidinyl)-1-piperazinyl)propyl)-5-fluoro-1H-indole hydrochloride] returned a melting point of 119 to 122 °C.
For the compound `COc1cncnc1N1CCN(CCCc2c[nH]c3ccc(N(C)S(=O)(=O)C(F)(F)F)cc23)CC1` (as salt: salt) [Example 26, 1-[3-[5-[Methyl(trifluoromethanesulfonyl)amino]-1H-indol-3-yl]propyl]-4-(5-methoxy-4-pyrimidinyl)piperazine], the melting point was more than 230 °C.
Consider `COc1cncnc1N1CCN(CCCc2c[nH]c3ccc(N)cc23)CC1` (as salt: salt) [Example 43, 3-[3-[4-(5-Methoxy-4-pyrimidinyl)-1-piperazinyl]propyl]-5-aminoindole], for which the melting point was 192 °C (dec.).
`COc1cncnc1N1CCN(CCCc2c[nH]c3ccc(CCS(C)(=O)=O)cc23)CC1C` (centres unmarked) (as salt: salt) [Example 51, 4-(5-Methoxy-4-pyrimidinyl)-1-[3-[5-[2-(methylsulfonyl)ethyl]-1H-indol-3-yl]propyl]-3-methylpiperazine] yielded a melting point of 220 to 223 °C.
`CCC(CCc1c[nH]c2ccccc12)N1CCN(c2ncncc2OC)CC1` (centres unmarked) (as salt: salt) [Example 54, 3-[3-[4-(5-Methoxy-4-pyrimidinyl)-1-piperazinyl]pentyl]indole]: the melting point was 145 °C (dec.).
Turning to `COc1cncnc1N1CCN(CCCc2c[nH]c3ccc(CNC(C)=O)cc23)CC1` (hydrate or solvate) [Example 40, 1-[[5-[[(Acetyl)amino]methyl]-1H-indol-3-yl]propyl]-4-(5-methoxy-4-pyrimidinyl)piperazine], the melting point fell in the range of 169 to 174 °C.
`CCOc1cncnc1N1CCN(CCCc2c[nH]c3ccccc23)CC1.Cl.O` (hydrate or solvate) [Example 52, 4-(5-Ethoxy-4-pyrimidinyl)-1-[3-(1H-indol-3-yl)propyl]piperazine hydrochloride hydrate] showed a melting point of more than 230 °C.
The compound `CCS(=O)(=O)N(C)Cc1ccc2[nH]cc(CCCN3CCN(c4ncncc4OC)CC3)c2c1` [Example 38, 4-(5-Methoxy-4-pyrimidinyl)-1-[[5-[[methyl(ethylsulfonyl)amino]-methyl]-1H-indol-3-yl]propyl]piperazine] came in with a melting point of 113 to 115 °C.
Compound `CCS(=O)(=O)N(Cc1ccccc1)Cc1ccc2[nH]cc(CCCN3CCN(c4ncncc4OC)CC3)c2c1` [Example 39, 4-(5-Methoxy-4-pyrimidinyl)-1-[[5-[[phenylmethyl(ethylsulfonyl)amino]-methyl]-1H-indol-3-yl]propyl]piperazine] displayed a melting point of 73 to 75 °C.
In the case of `COc1cncnc1N1CCN(CCCc2c[nH]c3ccc(CCS(C)(=O)=O)cc23)CC1` [Example 50, 4-(5-Methoxy-4-pyrimidinyl)-1-[3-[5-[2-(methylsulfonyl)ethyl]-1H-indol-3-yl]propyl]piperazine], the melting point was 153 to 154 °C.
As usually defined, the pIC50 is the negative decadic logarithm of the IC50, by convention in mol/L. A higher pIC50 goes with a low IC50. For `CCOc1cncnc1N1CCN(CCCc2c[nH]c3ccccc23)CC1` [Example 52, 4-(5-Ethoxy-4-pyrimidinyl)-1-[3-(1H-indol-3-yl)propyl]piperazine hydrochloride hydrate], the pIC50 in series [1] is 8.70.
`COc1cncnc1N1CCN(CCC(C)c2c[nH]c3ccccc23)CC1` (centres unmarked) [Example 53, 1-[3-(1H-indol-3-yl)butyl]-4-(5-methoxy-4-pyrimidinyl)piperazine]: the pIC50 in series [1] is 8.30. This pIC50 is 0.40 log units lower than that of the compound before.
In series [1], `CCC(CCc1c[nH]c2ccccc12)N1CCN(c2ncncc2OC)CC1` (centres unmarked) [Example 54, 3-[3-[4-(5-Methoxy-4-pyrimidinyl)-1-piperazinyl]pentyl]indole] had a pIC50 of 7.69. This pIC50 is 0.61 log units lower than that of the compound before.
`COc1cncnc1N1CCN(CCCc2c[nH]c3ccc(O)cc23)CC1` [Example 55, 1-[3-(5-Hydroxy-1H-indol-3-yl)propyl]-4-(5-methoxy-4-pyrimidinyl)piperazine] had a pIC50 in series [1] of 9.10. Compared with the last compound, the pIC50 is 1.41 log units higher.
`COc1cncnc1N1CCN(CCCc2c[nH]c3ccc(F)cc23)CC1` [Example 60, 3-(3-(4-(5-methoxy-4-pyrimidinyl)-1-piperazinyl)propyl)-5-fluoro-1H-indole hydrochloride]: in series [1], the pIC50 is 8.52.
With `COc1cncnc1N1CCN(CCCc2c[nH]c3ccccc23)CC1C` (centres unmarked) [Example 62], the pIC50 in series [1] is 8.38.
`COc1cncnc1N1CCN(CCCc2c[nH]c3ccc(NS(C)(=O)=O)cc23)CC1` [Example 63]: the pIC50 in series [1] is 8.28.
On the same count and under the same terms, to `COc1cncnc1N1CCN(CCCc2c[nH]c3ccc(N(C)S(C)(=O)=O)cc23)CC1` [Example 65] belongs 8.31; to `CCS(=O)(=O)Nc1ccc2[nH]cc(CCCN3CCN(c4ncncc4OC)CC3)c2c1` [Example 67], 7.86.
`CCS(=O)(=O)N(C)c1ccc2[nH]cc(CCCN3CCN(c4ncncc4OC)CC3)c2c1` [Example 68] had a pIC50 in series [1] of 7.89.
`CCS(=O)(=O)N(C)c1ccc2[nH]cc(CCCN3CCN(c4ncncc4OC)C(C)C3)c2c1` (centres unmarked) [Example 69] had a pIC50 in series [1] of 7.72.
As to `CCS(=O)(=O)Nc1ccc2[nH]cc(CCCN3CCN(c4ncncc4OC)C(C)C3)c2c1` (centres unmarked) [Example 70, 1-[3-(5-Ethanesulfonylamino-1H-indol-3-yl)propyl]-4-(5-methoxy-4-pyrimidinyl)-3-methylpiperazine], in series [1], the negative logarithm of the IC50 (pIC50) was 7.77.
In turn, `CCOc1ccc2[nH]cc(CCCN3CCN(c4ncncc4OC)CC3)c2c1` [Example 71] yielded a melting point of 112 to 114 °C. This compound also showed a pIC50 in series [1] of 8.66.
For `COc1cncnc1N1CCN(CCCc2c[nH]c3ccc(OCc4ccccc4)cc23)CC1` [Example 72], the negative-log IC50 (pIC50) in series [1] was 7.84.
In turn, `COc1ccc2[nH]cc(CCCN3CCN(c4ncncc4OC)CC3)c2c1` [Example 73] had a negative-log IC50 (pIC50) in series [1] of 8.96.
In the case of `COc1cncnc1N1CCN(CCCc2c[nH]c3cc(F)c(F)cc23)CC1` [Example 74], the melting point lay within 102 to 104 °C. In series [1], this compound showed a negative logarithm of the IC50 (pIC50) of 7.54.
`COc1cncnc1N1CCN(CCCc2c[nH]c3c(F)cc(F)cc23)CC1` [Example 76] showed a negative logarithm of the IC50 (pIC50) in series [1] of 8.09.
